In PubChem BioAssay AID520 (NMMLSC, 2006) one finds Ki and IC50 data, which are given here for 79 compounds.

The target in the assay is N-formyl peptide receptor 2 (Homo sapiens) (UniProt P25090). The assay is described as follows: FPRL1 binding inhibitor potency, dose response, cell-based, FPR counter-screen, fluorescent ligand (AID 520). The settings on record: FPRL1-expressing cells, fluorescent ligand binding inhibition; for Ki: measured here: FPRL1 binding Ki.

Active and inactive are the calls of the source. How the calls were made is not given here. Some results are limits rather than exact numbers.

N-formyl peptide receptor 2 (Homo sapiens), sequence (P25090 whole entry, looked up): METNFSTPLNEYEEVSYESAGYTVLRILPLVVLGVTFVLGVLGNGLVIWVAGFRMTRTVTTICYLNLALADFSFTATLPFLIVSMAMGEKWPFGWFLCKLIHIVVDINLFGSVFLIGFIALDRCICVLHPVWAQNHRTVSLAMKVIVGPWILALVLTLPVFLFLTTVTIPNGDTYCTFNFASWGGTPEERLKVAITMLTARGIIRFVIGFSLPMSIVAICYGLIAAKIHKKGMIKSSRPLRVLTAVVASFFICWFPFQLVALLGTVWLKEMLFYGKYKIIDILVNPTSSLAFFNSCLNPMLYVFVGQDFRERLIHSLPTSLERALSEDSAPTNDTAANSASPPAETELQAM

For orientation: Ki means a dissociation constant, usually derived from enzyme kinetics or from competition with a known ligand. Read a high Ki as a looser hold on the target. For `COc1ccc(Cl)cc1-n1c(=S)sc2c(=O)[nH]c(SCC(=O)NCC3CCCO3)nc21` (centres undefined), the Ki was more than 40.3 µM.

`O=C(NCc1cccnc1)C1c2ccccc2C(=O)N1C1CCCCCC1` (centres undefined) gave a Ki of more than 40.3 µM.

In general, IC50 refers to the point on the concentration scale where inhibition reaches its midpoint. Turning to `CCOc1cccc(/C(O)=C2/C(=O)C(=O)N(Cc3ccco3)C2c2ccncc2)c1` (centres undefined), the IC50 was > 66.7 µM (inactive) and the Ki was more than 40.3 µM.

In the case of `CCOC(=O)N1CCC(NC(=O)c2cc(C(=O)Nc3ccc(OC)c(OC)c3)ccc2CO)CC1`, the Ki is more than 40.3 µM.

The compound `Cc1cc(NC(=O)CSc2nnc(Cn3c(=O)sc4ccccc43)n2-c2ccccc2C)no1` gave a Ki of more than 40.3 µM.

In turn, `O=C(NCC1CCCO1)c1ccc(NC(=O)C2CCCCC2C(=O)O)cc1` (centres undefined) showed a Ki of more than 40.3 µM.

In the case of `CCOc1ccccc1Oc1c(C)oc2cc(OC(=O)c3ccco3)ccc2c1=O`, the Ki was more than 40.3 µM.

Consider `CCOc1cc(C2C(C(=O)c3ccc(C)o3)=C(O)C(=O)N2CCc2ccccc2)ccc1O` (centres undefined), for which the IC50 was > 66.7 µM (inactive) and the Ki was more than 40.3 µM.

For `COc1cccc2c1C(=O)c1c(O)c3c(c(O)c1C2=O)C[C@@](O)(C(C)=O)C[C@@H]3O[C@H]1C[C@H](N)[C@H](O)[C@H](C)O1`, the Ki was 15.2 µM.

For the compound `COc1ccccc1Oc1c(C)oc2c(CN(C)C)c(O)ccc2c1=O`, the Ki was more than 40.3 µM.

Consider `Nc1ccc(Nc2ccccc2)cc1`, for which the Ki is more than 40.3 µM.

Take `COCCCN1C(=O)C(O)=C(C(=O)c2ccco2)C1c1ccccc1` (centres undefined): the IC50 was > 66.7 µM (inactive) and the Ki is more than 40.3 µM.

Take `O=C(NCCCN1CCN(c2ccc(F)cc2)CC1)c1cccc(N2CCCC2=O)c1`: the Ki was more than 40.3 µM.

`CC1(C)S[C@@H]2[C@H](NC(=O)Cc3ccccc3)C(=O)N2[C@H]1C(=O)O` registered a Ki of more than 40.3 µM.

As for `COc1cc(C2C(C(=O)c3ccco3)=C(O)C(=O)N2CCc2ccccc2)ccc1O` (centres undefined), the IC50 is > 66.7 µM (inactive) and the Ki is more than 40.3 µM.

`C[N+]1(C)[C@@H]2CC(OC(=O)[C@H](CO)c3ccccc3)C[C@H]1[C@@H]1O[C@@H]12` (some centres undefined) came in with a Ki of more than 40.3 µM.

Turning to `COc1ccc(/C(O)=C2\C(=O)C(=O)N(Cc3ccco3)C2c2ccc(OC)cc2OC)cc1` (centres undefined), the IC50 is > 66.7 µM (inactive) and the Ki was more than 40.3 µM.

On to `CCOc1ccc(/C(O)=C2/C(=O)C(=O)N(CC3CCCO3)C2c2ccco2)cc1` (centres undefined), for which the IC50 was > 66.7 µM (inactive) and the Ki was more than 40.3 µM.

In the case of `CCCOc1ccc(C2C(C(=O)c3ccc(C)o3)=C(O)C(=O)N2CCCn2ccnc2)cc1` (centres undefined), the IC50 is > 66.7 µM (inactive) and the Ki was more than 40.3 µM.

On to `COc1ccc2nc(Nc3nc(C)c(C(C)=O)s3)sc2c1`, for which the Ki is more than 40.3 µM.

On to `O=C(C1=C(O)C(=O)N(CCOCCO)C1c1cccs1)c1cccs1` (centres undefined), for which the IC50 is > 66.7 µM (inactive) and the Ki was more than 40.3 µM.

In turn, `CCCCn1c(NC(C)=O)c(C#N)c2nc3ccccc3nc21` came in with a Ki of more than 40.3 µM.

On to `COc1ccc(C2C(C(=O)c3cccs3)=C(O)C(=O)N2c2nnc(C)s2)cc1OC` (centres undefined), for which the IC50 is > 66.7 µM (inactive) and the Ki was more than 40.3 µM.

Regarding `COc1cccc2cc(C(=O)C3=C(O)C(=O)N(Cc4ccco4)C3c3cccnc3)oc12` (centres undefined), the IC50 is > 66.7 µM (inactive) and the Ki is more than 40.3 µM.

Turning to `CCOc1cc(C2C(C(=O)c3ccco3)=C(O)C(=O)N2CCc2ccccc2)ccc1O` (centres undefined), the IC50 was > 66.7 µM (inactive) and the inhibition constant (Ki) was more than 40.3 µM.

`CCOC(=O)Cc1cc(=O)n2[nH]c(C)c(-c3ccc(OC)cc3)c2n1` had a Ki of more than 40.3 µM.

`COC(=O)C1(S(=O)(=O)c2cccc3nsnc23)CC1` had a Ki of more than 40.3 µM.

Regarding `CSCCC1C(C#N)=C(N)Oc2n[nH]c(-c3cccs3)c21` (centres undefined), the IC50 was > 66.7 µM (inactive) and the Ki is more than 40.3 µM.

`CCCC(=O)Nc1c2c(nn1-c1ccc(OC)cc1)CS(=O)C2` (centres undefined) showed a Ki of more than 40.3 µM.

Compound `O=S(=O)(c1cnc[nH]1)N1CCc2ccccc21` returned a Ki of more than 40.3 µM.

Compound `COC(=O)C1=[N+]([O-])OC(C(=O)OC)C1c1c[nH]c2ccccc12` (centres undefined) gave a Ki of more than 40.3 µM.

For `CCC(CCC(=O)Nc1cccc(C(=O)O)c1)C(=O)O` (centres undefined), the Ki was more than 40.3 µM.

The compound `CCCS(=O)(=O)N1CCCC(C(=O)N2CCC(Cc3ccccc3)CC2)C1` (centres undefined) returned a Ki of more than 40.3 µM.

`Cc1[nH]n2c(=O)c3c(nc2c1-c1ccccc1)CCC3` showed a Ki of more than 40.3 µM.

In the case of `COc1ccc(/C(O)=C2/C(=O)C(=O)N(CCN3CCOCC3)C2c2ccc(C)cc2)cc1` (centres undefined), the IC50 is > 66.7 µM (inactive) and the Ki was more than 40.3 µM.

`O=C1C(CCS(=O)c2ccccc2)C(=O)N(c2ccccc2)N1c1ccccc1` (centres undefined): the IC50 is > 66.7 µM (inactive) and the Ki is more than 40.3 µM.

For `CCOC(=O)c1c(NC(=O)C2C3CCC(O3)C2C(=O)O)sc(C)c1-c1ccc(C)cc1` (centres undefined), the Ki was more than 40.3 µM.

The compound `Cc1ccc(C)c(-n2c(CNC(=O)c3ccco3)nnc2SCC(=O)N2CCc3ccccc32)c1` had a Ki of more than 40.3 µM.

Regarding `COc1cc(C2C(C(=O)c3cccs3)=C(O)C(=O)N2Cc2ccco2)cc(OC)c1OC` (centres undefined), the IC50 was > 66.7 µM (inactive) and the Ki was more than 40.3 µM.

Regarding `COc1cc(-n2nc(C)c3c2OC(N)=C(C#N)C3c2ccccc2)c(Cl)c(Br)c1O` (centres undefined), the IC50 is > 66.7 µM (inactive) and the Ki is more than 40.3 µM.

Regarding `CC(=O)OCCNc1cc(N2CCN(C)CC2)c2noc3c2c1C(=O)c1ccccc1-3`, the Ki stood at 4.2 µM.

With `CC(=O)SCC(=O)N=c1sc2cc(F)ccc2n1C`, the Ki was more than 40.3 µM.

On to `CCCCNC(=O)c1sc(=S)n2c1[nH]c(=O)c1ccccc12`, for which the Ki was more than 40.3 µM.

`COCCCN1C(=O)C(O)=C(C(=O)c2ccco2)C1c1cccc(Br)c1` (centres undefined): the IC50 is > 66.7 µM (inactive) and the Ki is more than 40.3 µM.

On to `CCCOc1ccc(C2C(C(=O)c3ccc(C)o3)=C(O)C(=O)N2Cc2cccnc2)cc1` (centres undefined), for which the IC50 was > 66.7 µM (inactive) and the Ki was more than 40.3 µM.

On to `O=C1C(C23CC4CC(CC(C4)C2)C3)C(=O)N(c2ccccc2)N1c1ccccc1`, for which the IC50 was > 66.7 µM (inactive) and the Ki was more than 40.3 µM.

Compound `COc1ccc(-c2nnc(Nc3nc4c(OC)cccc4s3)o2)c(OC)c1` returned a Ki of more than 40.3 µM.

Regarding `Cc1c(C)c2cc(Cl)c(O)c(CN3CCCCC3)c2oc1=O`, the Ki is more than 40.3 µM.

In the case of `Cc1ccsc1C1C2=C(CC(C)(C)CC2=O)Nc2ncnn21` (centres undefined), the IC50 is > 66.7 µM (inactive) and the Ki was more than 40.3 µM.

Turning to `CCOc1ccc(C2C(C(=O)c3ccco3)=C(O)C(=O)N2CCCn2ccnc2)cc1` (centres undefined), the IC50 was > 66.7 µM (inactive) and the Ki was more than 40.3 µM.

Turning to `C/C(=C1/SC(N2CCCC2)=NC1=O)c1ccc(Br)cc1`, the IC50 was > 66.7 µM (inactive) and the Ki is more than 40.3 µM.

In turn, `COc1ccc(CN(C(=O)c2ccccc2OC)C2CCS(=O)(=O)C2)cc1` (centres undefined) had a Ki of more than 40.3 µM.

In the case of `CCCCC1C(=O)N(c2ccccc2)N(c2ccccc2)C1=O`, the IC50 was > 66.7 µM (inactive) and the Ki was more than 40.3 µM.

On to `COc1cc(C2C(C(=O)c3ccc(C)o3)=C(O)C(=O)N2CCc2ccccc2)ccc1O` (centres undefined), for which the IC50 was > 66.7 µM (inactive) and the Ki is more than 40.3 µM.

`O=C(Cn1cnc2c(cnn2-c2ccc(F)cc2)c1=O)OCc1ccccc1` yielded a Ki of more than 40.3 µM.

On to `COc1ccc(-c2cc(C(F)(F)F)nc(N3CCN(Cc4ccccc4)CC3)n2)cc1OC`, for which the Ki is 7.3 µM.

Turning to `COc1ccc(-c2cn3cccnc3n2)cc1NC(=O)C1CC1`, the Ki came out at 4.6 µM.

Turning to `CCOc1cc(C(=O)NCc2nnc(SCC(=O)OC)n2C)cc(OCC)c1OCC`, the inhibition constant (Ki) is 11.2 µM.

For the compound `COC(=O)c1[nH]c(C)c(/C(O)=C2\C(=O)C(=O)N(CCN3CCOCC3)C2c2cccs2)c1C` (centres undefined), the IC50 is > 66.7 µM (inactive) and the Ki was more than 40.3 µM.

Turning to `COC(=O)Cc1[nH]nc2c1C(C1C=CCCC1)C(C#N)=C(N)O2` (centres undefined), the IC50 is > 66.7 µM (inactive) and the Ki is more than 40.3 µM.

Regarding `COc1ccc2c(=O)c(N3C(=O)c4ccccc4C3=O)c(C)oc2c1`, the Ki is more than 40.3 µM.

As to `COc1ccc(NC(=O)C2C(=O)NC3(C)CC2c2ccccc2O3)cc1` (centres undefined), the Ki was more than 40.3 µM.

`COc1ccc(-c2nc(N3CCCC3)[nH]c(=O)c2C#N)cc1` came in with a Ki of more than 40.3 µM.

The compound `Cc1nnc(SCc2cnc(-c3ccccc3)o2)[nH]c1=O` displayed a Ki of more than 40.3 µM.

On to `CCOC(=O)c1ccc(NC(=O)Nc2ccc3c4c(cccc24)C(=O)N3CC)cc1`, for which the Ki was more than 40.3 µM.

In the case of `CCOC(=O)c1cc(NC(=O)C2C3CCC(O3)C2C(=O)O)cc(C(=O)OCC)c1` (centres undefined), the inhibition constant (Ki) was more than 40.3 µM.

As to `CCOc1ccc(/C(O)=C2/C(=O)C(=O)N(c3nc(C)c(C)s3)C2c2ccco2)cc1` (centres undefined), the IC50 is > 66.7 µM (inactive) and the Ki is more than 40.3 µM.

On to `CCOC(=O)c1c(NC(=O)c2cc(C3CC3)on2)sc2c1CCCC2`, for which the Ki is more than 40.3 µM.

For `COc1ccc(NC(=O)C(c2ccc(C)cc2)N(C)C(=O)c2cnccn2)cc1` (centres undefined), the Ki is more than 40.3 µM.

Regarding `O=c1c2c(nc3c(-c4ccc(Cl)cc4)c[nH]n13)CCCC2`, the Ki is more than 40.3 µM.

With `CCc1ccccc1NC(=O)C(C#N)Cc1cccnc1` (centres undefined), the Ki is more than 40.3 µM.

Regarding `Cc1[nH]n2c(=O)c(C#N)c(-c3ccccc3)nc2c1-c1ccccc1`, the Ki is more than 40.3 µM.

Turning to `CCC(=O)Nc1c(C#N)c2nc3ccccc3nc2n1-c1ccccc1C`, the Ki was more than 40.3 µM.

The compound `Cc1[nH]n2c(=O)c3c(nc2c1-c1ccc(Cl)cc1)CCC3` had a Ki of more than 40.3 µM.

As for `CCOC(=O)c1oc2cc(O)ccc2c(=O)c1-c1ccccc1OC`, the Ki is more than 40.3 µM.

For `COc1ccccc1C1/C(=C(/O)c2ccccc2)C(=O)C(=O)N1CC(C)C` (centres undefined), the IC50 is > 66.7 µM (inactive) and the Ki is more than 40.3 µM.

For `COCc1cc(C2C(C(=O)c3ccco3)=C(O)C(=O)N2CCOCCO)ccc1O` (centres undefined), the IC50 was > 66.7 µM (inactive) and the Ki was more than 40.3 µM.

For the compound `Cc1ccc(C(=O)C2=C(O)C(=O)N(Cc3ccccc3)C2c2cccnc2)o1` (centres undefined), the IC50 was > 66.7 µM (inactive) and the Ki is more than 40.3 µM.

Compound `CC1Oc2ccccc2N(Cc2ccccc2Cl)C1=O` (centres undefined) had a Ki of more than 40.3 µM.
